# Test results reported in US10537611B2, “Methods of treating lung cancer” (Five Prime Therapeutics, Inc., priority 2011, dated 2020).
# Experiments:
# U-118 xenograft model = assay: U-118 xenograft tumor growth inhibition; type: in vivo, mouse; settings: Glioblastoma U-118; IP 15 mg/kg BIW; non-amplified; P ns
# Experimental: (§1) Percentage tumor growth inhibition by FGFR1-ECD.339-Fc was determined by area-under-the-curve (AUC) analysis of xenograft growth curves treated with FGFR1-ECD.339-Fc compared to albumin control. […] The difference in FGFR1-ECD.339-Fc-mediated xenograft inhibition between FGFR1 gene amplified and non-amplified lung cancer xenograft models was statistically significant (P=0.0333).
# (§2) Also shown in Table 5 are the dosing schedule for FGFR1-ECD.339-Fc in a mouse xenograft model, the percent tumor growth inhibition (TGI (%)) and the statistical significance of the tumor growth inhibition (P Value), as well as whether the FGFR1 gene is amplified in the cell line.
# (§3) An exemplary xenograft experiment is as follows. For Caki-1 and MSTO-211H, five million cells were implanted subcutaneously over the right flank of SCID mice (N=10 per group). […] Representative tumor growth curves are shown for a renal cancer, Caki-1, (A), and mesothelioma, MSTO-211H, (B) xenograft cancer model. […] In the MSTO-211H mesothelioma model, FGFR1-ECD.339-Fc administration reduced tumor growth (FIG. 16b) by 64% (P<0.0001).
# U-87 xenograft model = assay: U-87 xenograft tumor growth inhibition; type: in vivo, mouse; settings: Glioblastoma U-87; IP 15 mg/kg BIW; non-amplified; P ns
# Experimental: as §1, §2, §3
# Du145 xenograft model = assay: Du145 xenograft tumor growth inhibition; type: in vivo, mouse; settings: Prostate Du145; IP 0.15 mg/kg 3×/w; non-amplified; P ns
# Experimental: as §1, §2, §3
# [1] = tested on: lung cancer cell lines with FGFR1 gene amplification; assay: CellTiter-Glo cell number, FGFR1 gene amplified lung cancer cell lines (average); type: cell-based, human; settings: averaged across all FBS concentrations; vs control ECD-Fc; four FGFR1 amplified lines
# Experimental: To determine the impact of FGFR1-ECD.339-Fc on lung cancer cell lines in tissue culture, cells were plated in a Microtest™ 96-well tissue culture plate (Becton Dickenson, Franklin Lakes, N.J.) at a density of 5×10^3 cells/well in medium containing 10%, 1% or 0.1% FBS in the presence or absence of 15 μg/ml FGFR1-ECD.339-Fc (SEQ ID NO: 6) or an unrelated ECD-Fc fusion protein (as a negative control). Plates were incubated at 37° C. at 5% CO2 for 4 days and then assayed to determine the impact of FGFR1-ECD.339-Fc on cell number and proliferation.
# To determine cell number the CellTiter-Glo® Luminescent Cell Viability Assay (Promega, Madison, Wis.) was employed. CellTiter-Glo® is a homogeneous method of determining the number of viable cells in culture based on quantitation of the ATP present, an indicator of metabolically active cells. In brief, CellTiter-Glo® Reagent was added to each well of the tissue culture plate at a volume equal to the volume of cell culture medium present in each well (100 μl), the contents mixed for 2 minutes on an orbital shaker to induce cell lysis and then the plate incubated for 10 minutes at room temperature. Luminescence was then determined on an EnVision™ Multilabel Plate Reader (PerkinElmer, Boston, Mass.) with a 0.2 second integration time. Results were expressed as relative light units (RLU)/well. […]
# G-401 xenograft model = assay: G-401 xenograft tumor growth inhibition; type: in vivo, mouse; settings: Renal G-401; IP 15 mg/kg BIW; non-amplified; P < 0.05
# Experimental: as §1, §2, §3
# MFE-280 xenograft model = assay: MFE-280 xenograft tumor growth inhibition; type: in vivo, mouse; settings: Endometrial MFE-280; IP 15 mg/kg BIW; non-amplified; P < 0.001
# Experimental: as §1, §2, §3
# [2] = tested on: VEGF-induced proliferation of HUVEC cells; assay: VEGF-A induced HUVEC proliferation; type: cell-based, human; settings: 10 μg/ml; 15 ng/ml VEGF-A165; 3 days, CellTiter-Glo
# Experimental: To determine whether FGFR1-ECD.339-Fc blocks VEGF-induced proliferation of endothelial cells, HUVEC cells (Life Technologies, Grand Island, N.Y.) were seeded at a density of 4×10^3 cells/well in basal media (Medium 200 (Life Technologies) with 2% heat inactivated FBS) and stimulated with either 10 ng/ml FGF2 (R&D Systems, Minneapolis, Minn.) or 15 ng/ml VEGF-A165 (R&D Systems, Minneapolis, Minn.) either in the presence of absence of 10 μg/ml FGFR1-ECD.339-Fc. HUVEC cell proliferation was determined 3 days post-stimulation using CellTiter-Glo® Luminescent Cell Viability Assay.
substance,measurement,setting,value
"FGFR1-ECD.339-Fc: human FGFR1 extracellular domain ending at amino acid 339 fused to an Fc; SEQ ID NO: 6 (mature form), SEQ ID NO: 5 with signal peptide",TGI (%),U-118 xenograft model,36%
same,TGI (%),U-87 xenograft model,0%
same,TGI (%),Du145 xenograft model,31%
same,average reduction in cell number (CellTiterGlo RLU),[1],46.25%
same,TGI (%),G-401 xenograft model,36%
same,TGI (%),MFE-280 xenograft model,96%
same,VEGF-induced proliferation of HUVECs,[2],did not block
